From patent US20140193827A1 (TEVA PHARMACEUTICAL INDUSTRIES, LTD., priority 2013, published 2014)

Experiments:
[1] = system: GA-primed murine splenocytes; experiment: Microarray gene expression profiling of GA-primed splenocytes reactivated ex vivo (t-test / 1-way ANOVA vs. Medium or GA-RS); format: cell-based, mouse
Source text: All experimental procedures conformed to accepted ethical standards for use of animals in research and were in accordance with Committee for the Care and Use of Experimental Animals guidelines and approved by the Teva Institutional Animal Care and Use Committee. For these experiments, we purchased 8- to 12-week old female (Balb/c×SJL)F1 mice (Harlan, Israel). […] Single cell suspension was prepared. […] Splenocytes (125 μL 10×10^6 SPL cell/mL suspension) were added to the activator solutions and incubated for 24 hours at 37° C. Then, cells were washed, diluted with RNA stabilization solution (RNAlater® solution, Applied Biosystems), and stored at 4° C. […] RNA quality was assessed by the absorbance ratio at 260/280 on and gel electrophoresis (Experion™, Bio-Rad, Hercules, Calif.). […] Microarray hybridization, array scanning, and initial preprocessing were performed by BioRap (Technion, Haifa, Israel). […] The subsequent bioinformatics analyses were conducted in the Bioinformatics Core Facility of the National Institute for Biotechnology in the Negev, Ltd. (NIBN, Beer-Sheva, Israel). Summarization of bead-level data to gene-level signals was performed using the R package “beadarray” (45) after removal of outliers greater than 3 median absolute deviations (MADs). Between-sample quantile normalization was performed using Partek Genomics Suite (Partek, Inc., St. Louis, Missouri), followed by correction of experimental batch effects (i.e., related to differences in dates of RNA extraction and array processing) using the Partek Batch Remover™ tool. […] Fold change values were presented in linear scale. […] RNA was extracted and full gene expression analysis was preformed.

[2] = system: GA-primed murine splenocytes; experiment: Non-parametric Wilcoxon rank sum test GA vs PG; format: cell-based, mouse
Source text: Nominal p-values were FDR adjusted and only probes that were less than or equal to 0.05 were considered.

[3] = system: GA-primed murine splenocytes; experiment: Functional gene expression analysis (Ingenuity Pathways Analysis: biological functions, canonical pathways); set-up: species or system mouse; settings: vs. Medium
Experimental: To identify the leading biological mechanisms associated with genes induced in splenocytes by glatiramoids, gene functional annotation, enrichment, and pathway analyses were performed by Ingenuity Pathways Analysis (IPA) Suite (www.ingenuity.com). The program integrates data from various experimental platforms and primary literature sources to provide insight into molecular interactions, cellular phenotypes, and disease processes, and then predicts downstream biological effects of gene transcription changes. IPA web software was also used to reconstruct regulatory genes and transcriptional factors functional networks. A significance score (using the right-tailed Fisher's exact test and expressed as a p value) for each process is calculated as the number of gene transcripts that participate in a network or pathway relative to the total number of these genes in all functional/pathway annotations stored in the IPA database. All p values were applied for multiple testing corrections using Benjamini-Hochberg FDR method with a cut off at p =0.05.

[4] = system: GA-primed murine splenocytes; experiment: Differentially expressed genes GA vs PG by multiple parametric tests (ANOVA, LIMMA with background subtraction, comparative marker selection SNR and t-test); format: cell-based, mouse
Experimental: The experimental design, data collection, and pre-processing steps have been previously described. […] After 3 days the mice were sacrificed, their splenocytes were isolated, and these splenocytes were mixed with activator solutions for 24 hours. […] Then the RNA was extracted and gene expression characterized by microarray using an Illumine WG-6_V2 chip. Illumina's BeadStudio software was utilized for image processing, quantification of signal intensity per bead, and background signal correction. The microarray data have been deposited in the Gene Expression Omnibus, under accession number GSE40566.
We then corrected for batch variation with ComBat (30) as implemented in the SVA package of R (62). Each microarray's chip designation was supplied a batch label; there were 18 batches in all. The labels for the treatments (i.e. drug product, reference standard . . . ) were added as covariates.
First, we computed the statistical significance of differential expression between treatments using the Analysis of Variance (ANOVA) method for each probe (65), adjusting for multiple hypothesis testing using the Benjamini-Hochberg False Discovery Rate (FDR) correction (66). […] The coefficients for the linear model were tested for significance using a modified t-test (taking into account standard deviation) and the p-values for each probe were adjusted using FDR. […] We applied two separate techniques within this framework; a traditional T-test and a Signal-to-Noise Ratio test (SNR). For each of these two tests, we adjusted the nominal p-values via FDR. For all four tests described, we used an adjusted threshold that was less than or equal to 0.05.

In the case of glatiramer acetate [GA], the “genes up- or down-regulated compared to medium” value ([1]; FDR-adjusted p value <0.05, fold change of 1.3 or more) is reported as 1474 genes, the FOXP3 expression ([1]; vs. Medium) is reported as “over-expressed” and the “Fold Change CD40” value ([1]; vs. Medium) is reported as 1.533. For the same substance, the “Fold Change CD86” value ([1]; vs. Medium) was 1.365, the “Fold Change FOXP3” value ([1]; vs. Medium) was 1.406 and the “Fold Change GATA3” value ([1]; vs. Medium) was 1.877. For the same substance, the “Fold Change HLA-DMA” value ([1]; vs. Medium) was 1.534, the “Fold Change HLA-DMB” value ([1]; vs. Medium) was 1.398 and the “Fold Change ICOS” value ([1]; vs. Medium) was 2.164. The “Fold Change IFNG” value ([1]; vs. Medium) was 16.847, the “Fold Change IFNGR2” value ([1]; vs. Medium) was −1.333 and the “Fold Change IL2” value ([1]; vs. Medium) was 2.074. The “Fold Change IL2RA” value ([1]; vs. Medium) was 2.457, the “Fold Change IL2RG” value ([1]; vs. Medium) was −1.386 and the “Fold Change IL4” value ([1]; vs. Medium) was 4.428. The “Fold Change IL4R” value ([1]; vs. Medium) was 1.578, the “Fold Change IL6R” value ([1]; vs. Medium) was −1.545 and the “Fold Change IL10RB” value ([1]; vs. Medium) was −1.323. The “Fold Change IL12RB1” value ([1]; vs. Medium) was 2.270, the “Fold Change IL13” value ([1]; vs. Medium) was 1.330 and the “Fold Change IL17A” value ([1]; vs. Medium) was 1.451. For the same substance, the “Fold Change IL17F” value ([1]; vs. Medium) was 2.365, the “Fold Change IL18” value ([1]; vs. Medium) was −1.383 and the “Fold Change IL18R1” value ([1]; vs. Medium) was −1.726. The “Fold Change TBX21” value ([1]; vs. Medium) was 2.654, the “Fold Change TGFBR2” value ([1]; vs. Medium) was −1.436 and the “Fold Change TNF” value ([1]; vs. Medium) was 1.475. The “CD40 expression, GA vs PG” value [2] was “significantly lower expression”, the “Response, Activation of T lymphocytes” value [3] was “Upregulated” and the “Response, Activation of antigen presenting cells” value [3] was “Upregulated”. The “Response, Activation of lymphocytes” value [3] was “Upregulated”, the “Response, Activation of mononuclear leukocytes” value [3] was “Upregulated” and the “Response, Activation of phagocytes” value [3] was “Upregulated”. The “Response, Development of hematopoietic progenitor cells” value [3] was “Down-regulated”, the “Response, Differentiation of effector T lymphocytes” value [3] was “Upregulated” and the “Response, Differentiation of naive lymphocytes” value [3] was “No change”. The “Response, Expansion of lymphocytes” value [3] was “No change”, the “Response, Expansion of mononuclear leukocytes” value [3] was “No change” and the “Response, Immune response of antigen presenting cells” value [3] was “Upregulated”. The “Response, Proliferation of B lymphocytes” value [3] was “Upregulated”, the “Response, Proliferation of T lymphocytes” value [3] was “No change” and the “Response, Proliferation of hematopoietic cell lines” value [3] was “Upregulated”. The “Response, Proliferation of immune cells” value [3] was “Upregulated”, the “Response, Proliferation of lymphocytes” value [3] was “Upregulated” and the “Response, Quantity of cytotoxic T cells” value [3] was “Down-regulated”. For the same substance, the “Response, Stimulation of antigen presenting cells” value [3] was “Upregulated”, the “Response, Stimulation of macrophages” value [3] was “Upregulated” and the “Response, Suppression of T lymphocytes” value [3] was “Upregulated”. For the same substance, the “FOXP3 expression, GA vs PG” value [4] was “significantly higher expression”, the “GPR83 expression, GA vs PG” value [4] was “significantly higher levels of expression” and the “IFNG expression, GA compared to PG” value ([4]; probes ranked #1 and #3 by fold change) was “upregulated dramatically”.
